US8993007B2, “Preparation used for anti-tachyarrhythmia and its preparation method” (Heshengyuan of Chinese Medicine Research & Development …, priority 2012, dated 2015)
“And” between values parts separate entries of the source, which are not always exact repeats. Equal values may be shown once.

Tests used:
connexin 43 [1] = experiment: Immunohistochemical expression of connexin 43 in left ventricle; type: in vivo, rats; conditions: immunohistochemistry; Metoprolol, Shengsong Yangxin capsule; intragastric 7 days
Protocol: (§1) Two primary antibodies were used in immunohistochemical test. The connexin 43 rabbit ploy-colonal antibody was supplied by CST, USA, Batch No. 08/2011 and phospho-connexin 43 (ser 368) rabbit ploy-colonal antibody was supplied by Santa Cruz, USA, Batch no. G2011. SP 2-step reagent kit for secondary antibody was supplied by Beijing Zhongshan Goldenspace Biotechnology Co. Ltd., Batch no. K116812C. Anhydrous ethyl alcohol was supplied by Beijing Chemical Works, 2500 ml/bottle, Batch no. 20110808.95% ethanol was supplied by Beijing Chemical Works, 2500 ml/bottle, Batch no. 20110808. Formalin solution was supplied by Xilong Chemical Corporation, 500 ml/bottle, Batch no. 1110082. Xylene solution was supplied by Beijing Chemical Works, 500 ml/bottle, Batch no. 20110808. Paraffin section (54-56° C.) was supplied by Beijing Beihuakangtai Reagents Co. Ltd., Batch no. 20110428. DAB reagent kit was supplied by Beijing ComWin Biotech Co. Ltd., Batch no. 03911H. Polylysine, strength 25 mg, was supplied by Shanghai Sigma-aldrich Trading Co. Ltd., Batch no. P1399. Microscopic cover glass (24×24 mm) and slide glass (model 7105) were supplied by Beijing Chuanganghuaxin Experimental Instrument Co. Ltd. Stainless steel pressure port, microwave oven, thermostatic waterbath, immunohistochemistry kit, antigen retrieval kit, and microscope. […]

Wistar male rats = experiment: MI areas after ligation of left anterior descending artery; type: in vivo; conditions: Metoprolol 2.25 mg/kg, Shengsong Yangxin capsule 0.432 g/kg; intragastric 7 days
Protocol: (§2) The rats were fixed on their back on board and chloral hydrate (10 mg/kg) intraperitoneally administered. Between the rib 4 and 5 on the left side, an open was cut into pleural cavity and the pericardium was torn open, then the heart was extruded by light pressure to the thorax. Two mm beneath left auricle, a ligation was done on left anterior descending artery with surgical suture (USP 0) and the heart was put back to the thorax. The cut open was closed and stitched. Penicillin (up to 80,000 unit) was used for the incision to protect again infection.
Sixty-six rats models were randomly assigned to 6 groups, 11 for each. They were the model group, the Metoprolol group, the Shengsong Yangxin capsule group, the large-dose extract group, the moderate-dose extract group and the small-dose extract group.
1) The Metoprolol group. Due to the administration of β receptor inhibitor after myocardial infarction (MI), Metoprolol was administered initially at small dose of 12.5 mg, bid, that is, the dosage was 25×0.018×5=2.25 mg/kg. Metoprolol 67.5 mg was accurately weighed and evenly dissolved with 300 ml normal saline (0.9%). […]
The hearts of the rats were harvested 2 hours after the last treatments were administered and the residues of blood in the heart chambers were washed with normal saline. […] Armed with the MPIDS-500, two technicians measured the MI areas on both sides of the slices. […]

connexin 43 [2] = experiment: Western Blot test of connexin 43 in MI areas; type: in vivo, rats; conditions: Metoprolol, Shengsong Yangxin capsule, intragastric 7 days
Protocol: as §2, with “fixed the” for “fixed”, “(3.5%, […]” for “(10”
Eighty-four rats' models were randomly assigned to 6 groups, 14 for each. They were the model group, the Metoprolol group, the Shengsong Yangxin capsule group, the large-dose extract group, the moderate-dose extract group, the small-dose extract group. Two more groups added were the control group of 13 rats and sham operation group of 13 rats. Some rats were dead the next day before intragastrical administration: 1 in the sham operation group, model group, Metoprolol group, Shengsong Yangxin capsule group, large-dose extract group and moderate-dose extract group respectively and 2 in the small-dose extract group.
1.2.3 Medicines Doses and Preparation. See Section 1.2.3 in the Experiment Example 1. […]

[3] = tested on: phospho-connexin 43 (ser 368); experiment: Immunohistochemical expression of phospho-connexin 43 in left ventricle; type: in vivo, rats; conditions: immunohistochemistry; Metoprolol, Shengsong Yangxin capsule; intragastric 7 days
Protocol: as §1

Ca^2+-ATPase = experiment: Ca2+-ATPase concentration in cardiac tissue homogenate of MI rats (assay kit); type: in vivo; conditions: Metoprolol, Shengsong Yangxin capsule (doses per b188: 2.25 mg/kg, 0.432 g/kg), intragastric 7 days
Protocol: as §2, with “beneath the” for “beneath”
(§3) Forty-two rats models were randomly assigned to 6 groups, 7 for each. They were the model group, the Metoprolol group, the Shengsong Yangxin capsule group, the large-dose extract group, the moderate-dose extract group, the small-dose extract group. Added were a control group of 6 rats and sham operation group of 6 rats. Totally there were 8 groups.
(§4) 1.2.3 Medicines Doses and Preparation. See Section 1.2.3 in the Experiment Example 1.
(§5) Starting from the next day after model establishment, the medicines were all administered intragastrically to the relevant groups accordingly, while the model group and sham operation group were given normal saline. The treatment course lasted for 7 days. […]

Na^+—K^+-ATPase = experiment: Na+-K+-ATPase concentration in cardiac tissue homogenate of MI rats (assay kit); type: in vivo; conditions: Metoprolol, Shengsong Yangxin capsule (doses per b188: 2.25 mg/kg, 0.432 g/kg), intragastric 7 days
Protocol: as §2, with “beneath the” for “beneath”
as §3, §4, §5

CD mice = experiment: CaCl2-induced arrhythmia, efficacy screening test; type: in vivo; conditions: CaCl2 tail vein 45 min after duodenal administration, amiodarone 78 mg/kg, NO.1 18.2, NO.2 157.6, NO.3 9.1, NO.4 462, NO.5 139, NO.6 1.16 mg/kg, NO.7 1.3 g/kg; for Duration (of arrhythmia), single animals: animals 1-10; for Duration (of arrhythmia), Mean: mean of 10 animals
Protocol: 90 CD mice, male, weighing 28-30 g, Beijing Vital River Laboratory Animal Technology Co., license number Sea (Beijing) 2006-0009. […] Before administration each drug was prepared to the desired concentration with physiological saline, duodenal route of administration, the dose of 10 mL/kg. […] Observed ECG whether induced arrhythmia, recorded the duration of ventricular arrhythmia; and the results were statistically analyzed.

| Compound | IOD of connexin 43 (connexin 43 [1]) | expression Area of connexin 43 (connexin 43 [1]) | MI area/total area of ventricular chamber (%) (Wistar male rats) | Gray degree of Connexin 43 (connexin 43 [2]) | IOD values of phospho-connexin 43 [3] | expression Area of phospho-connexin 43 [3] | The concentrations of Ca^2+-ATPase (Ca^2+-ATPase) | Concentrations of Na^+-k^+-ATPase (Na^+—K^+-ATPase) | Duration (of arrhythmia), single animals (CD mice) | Duration (of arrhythmia), Mean (CD mice) [s] |
| --- | --- | --- | --- | --- | --- | --- | --- | --- | --- | --- |
| COCCc1ccc(OCC(O)CNC(C)C)cc1 (stereo not drawn) [Metoprolol] | 4535.0243 ± 1743**ΔΔ | 17723.1800 ± 6672**ΔΔ | 19.0847 ± 2.819 | 0.5443 ± 0.1523**ΔΔ | 2686.5321 ± 1725**ΔΔ | 13283.8000 ± 8070**ΔΔ | 17.5339 ± 0.2439**ΔΔ U/ml | 10.1177 ± 0.167**ΔΔ U/ml | – | – |
| COc1cc2c(cc1OC)[C@@H]1Cc3ccc(OC)c(OC)c3CN1CC2 [Sample6, Tetrahydropalmatine] | – | – | – | – | – | – | – | – | 70 s (2×) and 79 s (2×) and 100 s and 47 s and 181 s and 104 s and 130 s and 80 s | 94.0 |
| CCCCc1oc2ccccc2c1C(=O)c1cc(I)c(OCCN(CC)CC)c(I)c1 [amiodarone] | – | – | – | – | – | – | – | – | 60 s and 106 s and 76 s and 53 s and 104 s and 99 s and 0 s and 86 s and 88 s and 120 s | 79.2 |
